≈ marks a conversion by molar mass, not a printed value. Calls of active or inactive are those of the source. The rule behind the calls is not given here.
Columns and labels:
[1] = target: NAD(P)H dehydrogenase [quinone] 1 (Homo sapiens) (UniProt P15559); assay: Substrate activity at recombinant human NQO1 expressed in Escherichia coli assessed as reduction rate by measuring umol of NADPH utilized per umol of enzyme at 10 uM preincubated for 3 mins followed by NADPH addition measured at 2 secs interval for 5 mins by UV-Vis spectroscopy
[2] = target: T1, NADPH--cytochrome P450 reductase (Homo sapiens, UniProt P16435); assay: Substrate activity at human CPR expressed in baculovirus expression system assessed as reduction rate by measuring umol of NADPH utilized per umol of enzyme at 10 uM preincubated for 3 mins followed by NADPH addition measured at 2 secs interval for 5 mins by UV-Vis spectroscopy; assay type: ADME
T1 sequence (P16435 whole entry): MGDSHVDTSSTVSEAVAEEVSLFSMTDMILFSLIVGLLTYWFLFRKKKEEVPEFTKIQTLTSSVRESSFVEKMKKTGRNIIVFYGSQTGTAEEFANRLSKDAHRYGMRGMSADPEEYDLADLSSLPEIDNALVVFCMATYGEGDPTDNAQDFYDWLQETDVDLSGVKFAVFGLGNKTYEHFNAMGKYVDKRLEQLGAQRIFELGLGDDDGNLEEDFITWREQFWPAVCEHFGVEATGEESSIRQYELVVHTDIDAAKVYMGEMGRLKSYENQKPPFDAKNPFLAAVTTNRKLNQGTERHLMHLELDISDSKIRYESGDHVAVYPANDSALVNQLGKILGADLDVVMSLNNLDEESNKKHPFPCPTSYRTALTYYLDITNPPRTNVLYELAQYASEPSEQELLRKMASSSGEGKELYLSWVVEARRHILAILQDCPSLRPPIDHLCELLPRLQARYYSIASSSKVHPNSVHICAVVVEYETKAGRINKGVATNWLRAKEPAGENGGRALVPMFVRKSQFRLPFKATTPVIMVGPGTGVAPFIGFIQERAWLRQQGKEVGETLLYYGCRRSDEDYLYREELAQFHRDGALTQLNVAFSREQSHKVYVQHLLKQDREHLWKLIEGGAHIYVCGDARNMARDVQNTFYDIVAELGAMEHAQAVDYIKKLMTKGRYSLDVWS

[3] = Intrinsic solubility of the compound; assay type: physicochemical; conditions: read-out: Intrinsic_solubility
[4] = Effective permeability of the compound at pH 7.4 by PAMPA assay; assay type: ADME; conditions: read-out: Peff
NCI-H1299 = assay: Cytotoxicity against human NCI-H1299 cells assessed as assessed as cell growth inhibition for 24 hrs followed by compound washout measured after 72 hrs by MTT assay; assay type: functional, cell-based
[5] = target: NAD(P)H dehydrogenase [quinone] 1 (Homo sapiens) (UniProt P15559); assay: Substrate activity at NQO1 in human A549 cells assessed as induction of enzyme-catalyzed lipid peroxidation by measuring MDA equivalents per protein at 5 uM after 24 hrs by TBARS assay (reference value: 3.53 +/- 1.12 nmol/mg); assay type: cell-based
[6] = target: NAD(P)H dehydrogenase [quinone] 1 (Homo sapiens) (UniProt P15559); assay: Substrate activity at NQO1 in human A549 cells assessed as induction of ROS-induced Akt phosphorylation at S473 at 1 uM after 3 hrs by Western blot analysis relative to control; assay type: cell-based
[7] = target: NAD(P)H dehydrogenase [quinone] 1 (Homo sapiens) (UniProt P15559); assay: Substrate activity at NQO1 in human A549 cells assessed as induction of ROS-induced Akt phosphorylation at S473 at 10 uM after 3 hrs in presence of DIC by Western blot analysis relative to control; assay type: cell-based
[8] = target: NAD(P)H dehydrogenase [quinone] 1 (Homo sapiens) (UniProt P15559); assay: Substrate activity at NQO1 in human A549 cells assessed as induction of ROS-induced Akt phosphorylation at […] at 10 uM after 3 hrs in presence of DIC by Western blot analysis relative to control; assay type: cell-based
[9] = target: NAD(P)H dehydrogenase [quinone] 1 (Homo sapiens) (UniProt P15559); assay: Substrate activity at NQO1 in human A549 cells assessed as induction of ROS-induced JNK phosphorylation at 1 uM after 3 hrs by Western blot analysis relative to control; assay type: cell-based
[10] = target: NAD(P)H dehydrogenase [quinone] 1 (Homo sapiens) (UniProt P15559); assay: Substrate activity at NQO1 in human A549 cells assessed as induction of ROS-induced JNK phosphorylation at 10 uM after 3 hrs by Western blot analysis relative to control; assay type: cell-based
[11] = target: NAD(P)H dehydrogenase [quinone] 1 (Homo sapiens) (UniProt P15559); assay: Substrate activity at NQO1 in human A549 cells assessed as induction of ROS-induced JNK phosphorylation at 10 uM after 3 hrs in presence of DIC by Western blot analysis relative to control; assay type: cell-based
A549 [12] = assay: Effect on total p38 protein levels in human A549 cells at 1 uM after 3 hrs by Western blot analysis relative to control; assay type: ADME, cell-based; conditions: a549, 3 h
A549 [13] = assay: Effect on total p38 protein levels in human A549 cells at 10 uM after 3 hrs by Western blot analysis relative to control; assay type: ADME, cell-based; conditions: a549, 3 h
[14] = target: NAD(P)H dehydrogenase [quinone] 1 (Homo sapiens) (UniProt P15559); assay: Substrate activity at NQO1 in human A549 cells assessed as induction of ROS-induced p38 phosphorylation at T180/Y182 at 1 uM after 3 hrs by Western blot analysis relative to control; assay type: cell-based
[15] = target: NAD(P)H dehydrogenase [quinone] 1 (Homo sapiens) (UniProt P15559); assay: Substrate activity at NQO1 in human A549 cells assessed as induction of ROS-induced p38 phosphorylation at T180/Y182 at 10 uM after 3 hrs in presence of DIC by Western blot analysis relative to control; assay type: cell-based
A549 [16] = assay: Effect on total ERK protein levels in human A549 cells at 5 uM after 3 hrs by Western blot analysis relative to control; assay type: ADME, cell-based; conditions: a549, 3 h
A549 [17] = assay: Effect on total ERK protein levels in human A549 cells at 10 uM after 3 hrs in presence of NAC by Western blot analysis relative to control; assay type: ADME, cell-based; conditions: a549, 3 h
A549 [18] = assay: Effect on total ERK protein levels in human A549 cells at 10 uM after 3 hrs in presence of DIC by Western blot analysis relative to control; assay type: ADME, cell-based; conditions: a549, 3 h
[19] = target: NAD(P)H dehydrogenase [quinone] 1 (Homo sapiens) (UniProt P15559); assay: Substrate activity at NQO1 in human A549 cells assessed as induction of ROS-induced ERK phosphorylation at 1 uM after 3 hrs by Western blot analysis relative to control; assay type: cell-based
[20] = target: NAD(P)H dehydrogenase [quinone] 1 (Homo sapiens) (UniProt P15559); assay: Substrate activity at NQO1 in human A549 cells assessed as induction of ROS-induced Akt phosphorylation at S473 after 3 hrs by Western blot analysis; assay type: cell-based
[21] = target: NAD(P)H dehydrogenase [quinone] 1 (Homo sapiens) (UniProt P15559); assay: Substrate activity at NQO1 in human A549 cells assessed as induction of ROS-induced Akt phosphorylation at […] after 3 hrs by Western blot analysis; assay type: cell-based
[22] = target: NAD(P)H dehydrogenase [quinone] 1 (Homo sapiens) (UniProt P15559); assay: Substrate activity at NQO1 in human A549 cells assessed as induction of ROS-induced JNK phosphorylation after 3 hrs by Western blot analysis; assay type: cell-based
A549 [23] = assay: Induction of apoptosis in human A549 cells assessed as chromatin condensation after 24 hrs by DAPI-staining based microscopy; assay type: functional, cell-based
A549 [24] = assay: Induction of apoptosis in human A549 cells assessed as increase in cleaved PARP expression after 24 hrs by Western blot analysis; assay type: functional, cell-based
A549 [25] = assay: Antitumor activity against human A549 cells xenografted in athymic nude mouse assessed as tumor growth inhibition at 30 mg/kg, iv administered every other day for 3 weeks measured every day during compound dosing relative to control; assay type: functional; conditions: 504 h, read-out: TGI
A549 [26] = assay: Antitumor activity against human A549 cells xenografted in athymic nude mouse assessed as tumor growth inhibition at 50 mg/kg, iv administered every other day for 3 weeks measured every day during compound dosing relative to control; assay type: functional; conditions: 504 h, read-out: TGI
A549 [27] = assay: Induction of ROS levels in human A549 cells xenografted in athymic nude mouse at 15 to 30 mg/kg, iv administered every other day for 3 weeks by DCFH-DA-probe based flow cytometry; assay type: functional, organism-based

Chain of NAD(P)H dehydrogenase [quinone] 1 (Homo sapiens) (P15559 whole entry): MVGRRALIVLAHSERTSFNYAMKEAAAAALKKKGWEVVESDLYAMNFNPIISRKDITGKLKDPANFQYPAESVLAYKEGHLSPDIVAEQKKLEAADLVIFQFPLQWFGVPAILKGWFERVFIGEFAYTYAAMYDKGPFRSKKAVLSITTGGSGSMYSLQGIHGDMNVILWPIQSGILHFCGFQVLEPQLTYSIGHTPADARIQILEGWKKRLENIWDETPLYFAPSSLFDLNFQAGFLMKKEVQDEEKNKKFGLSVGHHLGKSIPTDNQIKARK

In the case of Cc1cc2c(cc1C)-c1oc(CNc3ccc(CN4CCOCC4)cc3)c(C)c1C(=O)C2=O, the Activity [1] is reported as 1520 µmol/min, the Activity [2] is reported as 73 µmol NADPH/min/µmol enzyme and the solubility [3] is reported as 360 µg/mL (≈ 810 µM). For the same molecule, the Papp [4] was 46.5 ×10⁻⁶ cm/s, the IC50 (NCI-H1299) was 3.8 µM and the Activity [5] was 10.3 nmol/mg. It also gave a fold change (FC) [6] of 1.51, a fold change (FC) [7] of 1.36 and a fold change (FC) [8] of 1.96. The fold change (FC) [9] was 17.4, the fold change (FC) [10] was 30.5 and the fold change (FC) [11] was 7.1. For the same molecule, the “fold change (FC)” value (A549 [12]) was 0.93, the “fold change (FC)” value (A549 [13]) was 1.1 and the fold change (FC) [14] was 11.1. For the same molecule, the fold change (FC) [15] was 9.2, the “fold change (FC)” value (A549 [16]) was 0.97 and the “fold change (FC)” value (A549 [17]) was 1.11. The “fold change (FC)” value (A549 [18]) was 0.87, the fold change (FC) [19] was 2 and the Activity [20] was “Dose-dependent effect”. For the same molecule, the Activity [21] was “Dose-dependent effect”, the Activity [22] was “Dose-dependent effect” and the Activity (A549 [23]) was “Dose-dependent effect”. For the same molecule, the Activity (A549 [24]) was “Dose-dependent effect”, the inhibition in vivo at 30 mg/kg (A549 [25]) was 87.1% and the inhibition in vivo at 50 mg/kg (A549 [26]) was 90.3%. The Activity (A549 [27]) was “Active”.

From ChEMBL document CHEMBL4130353, “2-Substituted 3,7,8-trimethylnaphtho[1,2-b]furan-4,5-diones as specific L-shaped NQO1-mediated redox modulators for the treatment of non-small cell lung cancer” (Eur J Med Chem, 2017)
